Measurements reported in patent publication US20250163038A1, “CBL-B MODULATORS AND USES THEREOF” (Nimbus Clio, Inc., priority 2021, published 2025).

How the values were obtained:
[1] = system: Jurkat (clone E6-1) cells with NFAT luciferase reporter; assay: Jurkat reporter assay (NFAT Luciferase); format: cell-based; details: Homo sapiens; Jurkat NFAT luciferase reporter cells, anti-CD3 stimulation, 6 hr; read-out: Jurkat NFAT EC50
[2] = molecular target: Recombinant human Cbl-b (aa 36-427) (Homo sapiens, UniProt Q13191); assay: Cbl-b Biochemical Assay (TR-FRET); details: read-out: TR-FRET hCbl-b IC50
Recombinant human Cbl-b (aa 36-427), sequence (Q13191 36-427): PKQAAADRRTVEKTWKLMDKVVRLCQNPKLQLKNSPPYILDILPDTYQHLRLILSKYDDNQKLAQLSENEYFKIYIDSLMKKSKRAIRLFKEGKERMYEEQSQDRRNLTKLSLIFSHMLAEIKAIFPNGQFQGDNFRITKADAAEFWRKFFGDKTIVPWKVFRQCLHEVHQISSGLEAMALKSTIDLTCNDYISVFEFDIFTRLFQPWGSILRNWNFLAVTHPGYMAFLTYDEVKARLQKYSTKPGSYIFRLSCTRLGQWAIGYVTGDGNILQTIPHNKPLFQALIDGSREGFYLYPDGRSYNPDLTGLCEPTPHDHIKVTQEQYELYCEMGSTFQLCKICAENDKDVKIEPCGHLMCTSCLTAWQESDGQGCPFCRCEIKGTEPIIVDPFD

[3] = molecular target: T1, Recombinant human c-Cbl (aa 47-435) (Homo sapiens, UniProt P22681); assay: c-Cbl Biochemical Assay (TR-FRET); details: hc-Cbl Biochemical Assay (TR-FRET); read-out: TR-FRET hcCbl IC50
T1 sequence (P22681 47-435): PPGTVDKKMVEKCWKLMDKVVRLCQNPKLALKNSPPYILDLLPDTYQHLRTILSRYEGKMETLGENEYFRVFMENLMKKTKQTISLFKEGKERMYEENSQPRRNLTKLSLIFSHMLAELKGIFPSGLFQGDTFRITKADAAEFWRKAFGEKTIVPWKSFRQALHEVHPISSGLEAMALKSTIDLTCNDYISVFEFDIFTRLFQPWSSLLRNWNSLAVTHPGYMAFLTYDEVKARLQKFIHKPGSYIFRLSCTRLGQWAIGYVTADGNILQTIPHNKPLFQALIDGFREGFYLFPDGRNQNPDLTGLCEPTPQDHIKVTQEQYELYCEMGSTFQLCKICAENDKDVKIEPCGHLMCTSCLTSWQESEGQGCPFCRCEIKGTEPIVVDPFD

EC50 [1] | IC50 [2] | IC50 [3] | Structure (SMILES)
10 to 50 µM | 1 to 10 µM | – | Cn1cnnc1-c1cc(F)ccc1-c1cccc(-c2nc3cc(NCCC4CCC4)cc(C(F)(F)F)c3o2)c1 [HU-1, N-(2-Cyclobutylethyl)-2-(4′-fluoro-2′-(4-methyl-4H-1,2,4-triazol-3-yl)-[1,1′-biphenyl]-3-yl)-7-(trifluoromethyl)benzo[d]oxazol-5-amine]
– | 0.2 to 1 µM | 1 to 10 µM | Cn1cnnc1-c1cc(F)ccc1-c1cccc(-c2nc3cc(C(=O)N[C@@H]4CCC[C@@H]4O)cc(C(F)(F)F)c3o2)c1 [DB-2, 2-(4′-Fluoro-2′-(4-methyl-4H-1,2,4-triazol-3-yl)-[1,1′-biphenyl]-3-yl)-N-((1R,2S)-2-hydroxycyclopentyl)-7-(trifluoromethyl)benzo[d]oxazole-5-carboxamide]
– | < 0.2 µM | 1 to 10 µM | CC(=O)c1cc(C(F)(F)F)c2oc(-c3cccc(-c4ccc(F)cc4-c4nncn4C)c3)nc2c1 [DK-1, 1-(2-(4′-Fluoro-2′-(4-methyl-4H-1,2,4-triazol-3-yl)-[1,1′-biphenyl]-3-yl)-7-(trifluoromethyl)benzo[d]oxazol-5-yl)ethan-1-one]
1 to 10 µM | 10 to 50 µM | – | Cn1cnnc1-c1cc(F)ccc1-c1cccc(-c2nc3cc(C(=O)O)cc(C(F)(F)F)c3o2)c1 [DB-1, 2-(4′-Fluoro-2′-(4-methyl-4H-1,2,4-triazol-3-yl)-[1,1′-biphenyl]-3-yl)-7-(trifluoromethyl)benzo[d]oxazole-5-carboxylic Acid]
– | 1 to 10 µM | 10 to 50 µM | C[C@@H]1CCCN(Cc2cc(C(F)(F)F)c3[nH]c(-c4cccc(-c5ccccc5-c5nncn5C)c4)nc3c2)C1 [AAJ-1, 2-[2′-(4-Methyl-1,2,4-triazol-3-yl)-[1,1′-biphenyl]-3-yl]-6-{[(3R)-3-methylpiperidin-1-yl]methyl}-4-(trifluoromethyl)-3H-1,3-benzodiazole]
– | 1 to 10 µM | 10 to 50 µM | C[C@@H]1CCCN(Cc2cc(C(F)(F)F)c3oc(-c4cccc(-c5ccccc5-c5nncn5C)c4)nc3c2)C1 [Example L-4, (R)-2-(2′-(4-Methyl-4H-1,2,4-triazol-3-yl)-[1,1′-biphenyl]-3-yl)-5-((3-methylpiperidin-1-yl)methyl)-7-(trifluoromethyl)benzo[d]oxazole]
– | 0.2 to 1 µM | 1 to 10 µM | Cn1cnnc1[C@]1(c2cccc(-c3nc4cc(CO)cc(C(F)(F)F)c4o3)c2)C[C@H](C)C1 [ADD-1, (2-(3-((1s,3s)-3-Methyl-1-(4-methyl-4H-1,2,4-triazol-3-yl)cyclobutyl)phenyl)-7-(trifluoromethyl)benzo[d]oxazol-5-yl)methanol]
– | 1 to 10 µM | 10 to 50 µM | Cn1cnnc1-c1ccccc1-c1cccc(-c2nc3cc(CO)cc(C(F)(F)F)c3o2)c1 [Example F-5, (2-(2′-(4-Methyl-4H-1,2,4-triazol-3-yl)-[1,1′-biphenyl]-3-yl)-7-(trifluoromethyl)benzo[d]oxazol-5-yl)methanol]
– | 10 to 50 µM | 10 to 50 µM | Cn1cnnc1-c1cc(F)ccc1-c1cccc(-c2nc3cc(CO)ccc3o2)c1 [AJ-3, (2-(4′-Fluoro-2′-(4-methyl-4H-1,2,4-triazol-3-yl)-[1,1′-biphenyl]-3-yl)benzo[d]oxazol-5-yl)methanol]
– | 1 to 10 µM | 10 to 50 µM | Cn1cnnc1-c1cnn(C)c1-c1cccc(-c2nc3cc(CN[C@@H]4CCC[C@H]4O)cc(C(F)(F)F)c3o2)c1 [AAV-2, (1R,2R)-2-(((2-(3-(1-Methyl-4-(4-methyl-4H-1,2,4-triazol-3-yl)-1H-pyrazol-5-yl)phenyl)-7-(trifluoromethyl)benzo[d]oxazol-5-yl)methyl)amino)cyclopentan-1-ol]
– | 10 to 50 µM | 10 to 50 µM | C[C@H]1CCCN(C(=O)c2cc(C(F)(F)F)c3oc(-c4cccc(-c5ccccc5-c5nncn5C)c4)nc3c2)C1 [Example I-2, (S)-(2-(2′-(4-Methyl-4H-1,2,4-triazol-3-yl)-[1,1′-biphenyl]-3-yl)-7-(trifluoromethyl)benzo[d]oxazol-5-yl)(3-methylpiperidin-1-yl)methanone]

Second part, the compound before the results:

Structure (SMILES) | EC50 [1] | IC50 [2] | IC50 [3]
CC(C)NCc1cc(C(F)(F)F)c2oc(-c3cccc(-c4ccc(F)cc4-c4nncn4C)c3)nc2c1 [EP-2, N-((2-(4′-Fluoro-2′-(4-methyl-4H-1,2,4-triazol-3-yl)-[1,1′-biphenyl]-3-yl)-7-(trifluoromethyl)benzo[d]oxazol-5-yl)methyl)propan-2-amine] | 0.2 to 1 µM | < 0.2 µM | 0.2 to 1 µM
Cn1cnnc1CC1(c2cccc(-c3nc4cc(CN5CC[C@H](O)C5)cc(C(F)(F)F)c4[nH]3)c2)COC1 [ACL-1, (S)-1-((2-(3-(3-((4-Methyl-4H-1,2,4-triazol-3-yl)methyl)oxetan-3-yl)phenyl)-7-(trifluoromethyl)-1H-benzo[d]imidazol-5-yl)methyl)pyrrolidin-3-ol] | – | 0.2 to 1 µM | 1 to 10 µM
Cn1cnnc1CC1(c2cccc(-c3cc(C(F)(F)F)c[nH]c3=O)c2)COC1 [ABO-1, 3-(3-(3-((4-Methyl-4H-1,2,4-triazol-3-yl)methyl)oxetan-3-yl)phenyl)-5-(trifluoromethyl)pyridin-2(1H)-one] | – | 0.2 to 1 µM | 10 to 50 µM
Cn1cnnc1-c1cc(F)ccc1-c1cc(Cl)nc(-c2nc3cc(CO)cc(C(F)(F)F)c3[nH]2)c1 [ADX-3, (2-{6-Chloro-4-[4-fluoro-2-(4-methyl-1,2,4-triazol-3-yl)phenyl]pyridin-2-yl}-7-(trifluoromethyl)-1H-1,3-benzodiazol-5-yl)methanol] | – | 10 to 50 µM | 10 to 50 µM
CC(Cc1nncn1C)c1cccc(-c2nc3ccc(OCCN(C)C)c(C(F)(F)F)c3[nH]2)c1 (centres unmarked) [AW-4, N,N-dimethyl-2-((2-(3-(1-(4-methyl-4H-1,2,4-triazol-3-yl)propan-2-yl)phenyl)-7-(trifluoromethyl)-1H-benzo[d]imidazol-6-yl)oxy)ethan-1-amine] | – | 10 to 50 µM | 10 to 50 µM
CCNc1cc(-c2c(-c3nncn3C)cnn2C)cc(-c2nc3cc(CN4CCC5(CC5)C4)cc(C(F)(F)F)c3[nH]2)n1 [AAM-2, 6-(6-{5-Azaspiro[2.4]heptan-5-ylmethyl}-4-(trifluoromethyl)-3H-1,3-benzodiazol-2-yl)-N-ethyl-4-[2-methyl-4-(4-methyl-1,2,4-triazol-3-yl)pyrazol-3-yl]pyridin-2-amine] | – | 1 to 10 µM | 10 to 50 µM
Cn1cnnc1-c1cnn(C)c1-c1cc(Cl)nc(-c2cc(C(F)(F)F)c[nH]c2=O)c1 [ACR-3, 6-Chloro-4-(1-methyl-4-(4-methyl-4H-1,2,4-triazol-3-yl)-1H-pyrazol-5-yl)-5′-(trifluoromethyl)-[2,3′-bipyridin]-2′(1′H)-one] | – | 10 to 50 µM | 10 to 50 µM
Cn1cnnc1CC1(c2cccc(-c3nc4cc(Br)cc(C(F)(F)F)c4o3)c2)COC1 [AAK-1, 5-Bromo-2-(3-(3-((4-methyl-4H-1,2,4-triazol-3-yl)methyl)oxetan-3-yl)phenyl)-7-(trifluoromethyl)benzo[d]oxazole] | – | 0.2 to 1 µM | 10 to 50 µM
CN(C)CCOc1ccc2nc(-c3cccc(C4(Cc5nncn5C)COC4)c3)[nH]c2c1C(F)(F)F [AZ-1, N,N-Dimethyl-2-((2-(3-(3-((4-methyl-4H-1,2,4-triazol-3-yl)methyl)oxetan-3-yl)phenyl)-7-(trifluoromethyl)-1H-benzo[d]imidazol-6-yl)oxy)ethan-1-amine] | – | 10 to 50 µM | 10 to 50 µM
C[C@H](Cc1nncn1C)c1cccc(-c2nc3cccc(C(F)(F)F)n3n2)c1 [ACA-2, (R)-2-(3-(1-(4-methyl-4H-1,2,4-triazol-3-yl)propan-2-yl)phenyl)-5-(trifluoromethyl)-[1,2,4]triazolo[1,5-a]pyridine] | – | 10 to 50 µM | 10 to 50 µM
CCNc1cc(-c2c(-c3nncn3C)cnn2C)cc(-c2nc3cccc(C(F)(F)F)c3s2)n1 [ACU-2, N-Ethyl-4-[2-methyl-4-(4-methyl-1,2,4-triazol-3-yl)-pyrazol-3-yl]-6-[7-(trifluoromethyl)-1,3-benzothiazol-2-yl]-pyridin-2-amine] | – | 10 to 50 µM | 10 to 50 µM
Cn1cnnc1CC1(c2cccc(-c3nc4cc(CNc5nccn5C)cc(C(F)(F)F)c4[nH]3)c2)COC1 [ACC-1, 1-Methyl-N-((2-(3-(3-((4-methyl-4H-1,2,4-triazol-3-yl)methyl)oxetan-3-yl)phenyl)-7-(trifluoromethyl)-1H-benzo[d]imidazol-5-yl)methyl)-1H-imidazol-2-amine] | – | 0.2 to 1 µM | 1 to 10 µM
Cn1cnnc1CC1(c2cccc(-c3cc(C(F)(F)F)cn(C)c3=O)c2)COC1 [CF-2, 1-Methyl-3-(3-(3-((4-methyl-4H-1,2,4-triazol-3-yl)methyl)oxetan-3-yl)phenyl)-5-(trifluoromethyl)pyridin-2(1H)-one] | – | 10 to 50 µM | 10 to 50 µM
COC(=O)c1cc(C)c2oc(-c3cc(-c4ccc(F)cc4-c4nncn4C)cc(C4CC4)n3)nc2c1 [AES-3, Methyl 2-{6-cyclopropyl-4-[4-fluoro-2-(4-methyl-1,2,4-triazol-3-yl)phenyl]pyridin-2-yl}-7-methyl-1,3-benzoxazole-5-carboxylate] | 10 to 50 µM | 1 to 10 µM | –
Cn1cnnc1CC1(c2cccc(-c3nc4cccc(C(F)(F)F)c4[nH]3)c2)COC1 [ABB-2, 2-(3-(3-((4-Methyl-4H-1,2,4-triazol-3-yl)methyl)oxetan-3-yl)phenyl)-7-(trifluoromethyl)-1H-benzo[d]imidazole] | – | 10 to 50 µM | 10 to 50 µM
